In general, IC50 refers to the concentration that gives 50% inhibition. Low readings indicate higher potency, high ones lower potency.

The structures appear in SMILES notation.

For seven compounds, ED50 and IC50 results are on record in ChEMBL document CHEMBL1136663, “Structure-activity relationships studies of the anti-angiogenic activities of linomide” (Bioorg Med Chem Lett, 2003).

The species entered for one assay is Gallus gallus. Put plainly: Effective concentration for inhibiting blood vessel formation in the CAM (Chicken chorioallantoic membrane) angiogenesis assay. It is filed as functional.
For another assay, the system named is PC-3. Description: Antiproliferative activity against PC-3 prostate cancer cells. It counts as functional, cell-based. Conditions: Homo sapiens.
In a further assay the test system is HUVEC. Put plainly: Inhibitory concentration against Human umbilical vein endothelial cell (HUVEC) proliferation. It is filed as functional, cell-based.

Consider `O=C(Nc1ccccc1)c1cc2ccccc2nc1O`, for which the ED50 in the assay listed under Gallus gallus is > 100 µg embryo-1. Further, in the assay on PC-3, the half-maximal inhibitory concentration (IC50) is > 100 µM.
On to `CN(C(=O)c1cc2ccccc2n(C)c1=O)c1ccccc1`, for which the ED50 in the assay listed under Gallus gallus is > 100 µg embryo-1. For the same compound, the 50% inhibitory concentration (IC50) in the assay on PC-3 is > 100 µM.
Regarding `CN(C(=O)c1c(O)c2ccccc2n(C)c1=O)c1ccccc1` [ROQUINIMEX], the values for the half-inhibitory concentration (IC50) in the assay on HUVEC and with PC-3 were 14 µM and > 100 µM, respectively. Also, the ED50 in the assay listed under Gallus gallus is 60.1 µg embryo-1.
The corresponding values for `CN(C)C(=O)c1c(O)c2ccccc2n(C)c1=O` are 16.5 µM, > 100 µM and 8.5 µg embryo-1.
The corresponding values for `O=C(Nc1ccccc1)c1c(O)nc2ccccc2c1O` are 4 µM, > 100 µM and 0.87 µg embryo-1.
For `Cn1c(=O)c(C(=O)Nc2ccccc2)c(O)c2ccccc21`, the IC50 was 7.2 µM in the assay on HUVEC and > 100 µM with PC-3. Further, the ED50 in the assay filed under Gallus gallus turned out to be 18 µg embryo-1.
The corresponding values for `CN(C(=O)c1c(O)nc2ccccc2c1O)c1ccccc1` are 6.55 µM, > 100 µM and 7.5 µg embryo-1.
